Measurements published in patent US20100160264A1, “CRYSTALLINE SOLID FORMS” (priority 2007, published 2010).
Converted amounts (≈) assume the structure as drawn.

Key:
[1] = 30 min
Procedure: The water solubility determination of the different crystalline forms of Tigecycline was performed on a Perkin Elmer® Lambda 35 UV/VIS spectrometer. The software used was Perkin Elmer® UV WlnLab-5.1.
200 mg of Tigecycline were stirred with 1 ml distilled water at room temperature for 30 minutes. The suspension was filtered through a 0.45 μm filter and 100 μl of the solution were transferred into a 1 L volumetric flask. After filling up to the check mark with distilled water the solution was measured at 347 nm.

[2] = Water content and hygroscopicity: open storage for 24 hours at 80% relative humidity; format: physicochemical; conditions: for water content 1 day at 80% rH: open storage 1 day at 80% rH; for water uptake 1 day at 80% rH / Hygroscopicity in words: open storage 24 hours at 80% relative humidity
Source text: Furthermore suitable crystalline forms of Tigecycline should be low hygroscopic, as water uptake may cause the formation of undesired byproducts like e.g. 4-Epi-Tigecycline.

[3] = Stability after storing different crystalline forms of Tigecycline at 80° C. for 7 days (4-Epi-Tigecycline and total impurities); format: physicochemical; conditions: for Stability in words (total impurities and 4-Epi-Tigecycline content): 7 days at 80° C.; for 4-Epi-Tigecycline 7 days at 80° C. / Total impurities 7 days at 80° C.: after storing 7 days at 80° C., in % (unit assumed); for 4-Epi-Tigecycline ambient conditions / Total impurities ambient conditions: before storage, depends on purity of the starting material
Source text: A suitable crystalline form of Tigecycline for formulating an anti-infective medicament first of all is required to be thermodynamic stable, in order to avoid formation of degradation products.

[4] = cited from earlier work

Structure (SMILES): CN(C)c1cc(NC(=O)CNC(C)(C)C)c(O)c2c1C[C@H]1C[C@H]3[C@H](N(C)C)C(O)=C(C(N)=O)C(=O)[C@@]3(O)C(O)=C1C2=O [Form II, Tigecycline]
- Solubility, Concentration [1]: 177 mg/mL (≈ 302 mM)
- water content ambient conditions ([2]; listed as II): 2.93%
- water content 1 day at 80% rH ([2]; listed as II): 10.04%
- water uptake 1 day at 80% rH ([2]; listed as II): 7.11%
- Stability in words (total impurities and 4-Epi-Tigecycline content) ([3]; listed as form II): tremendous increase
- 4-Epi-Tigecycline 7 days at 80° C. ([3]; listed as II): 10.83
- Total impurities 7 days at 80° C. ([3]; listed as II): 18.44
- 4-Epi-Tigecycline ambient conditions ([3]; listed as II): 1.04%
- Total impurities ambient conditions ([3]; listed as II): 1.6%

Structure (SMILES): CN(C)c1cc(NC(=O)CNC(C)(C)C)c(O)c2c1C[C@H]1C[C@H]3[C@H](N(C)C)C(O)=C(C(N)=O)C(=O)[C@@]3(O)C(O)=C1C2=O [Form I, Tigecycline]
- Solubility, Concentration [1]: 185 mg/mL (≈ 316 mM)
- water content ambient conditions ([2]; listed as I): 2.01%
- water content 1 day at 80% rH ([2]; listed as I): 5.01%
- water uptake 1 day at 80% rH ([2]; listed as I): 3.00%
- Stability in words (total impurities and 4-Epi-Tigecycline content) [3]: tremendous increase
- 4-Epi-Tigecycline 7 days at 80° C. ([3]; listed as I): 2.15
- Total impurities 7 days at 80° C. ([3]; listed as I): 11.20
- 4-Epi-Tigecycline ambient conditions ([3]; listed as I): 0.36%
- Total impurities ambient conditions ([3]; listed as I): 0.75%

Structure (SMILES): CN(C)c1cc(NC(=O)CNC(C)(C)C)c(O)c2c1C[C@H]1C[C@H]3[C@H](N(C)C)C(O)=C(C(N)=O)C(=O)[C@@]3(O)C(O)=C1C2=O [Form VI, Tigecycline]
- Solubility, Concentration [1]: 76 mg/mL (≈ 130 mM)
- water content ambient conditions ([2]; listed as VI): 0.18%
- water content 1 day at 80% rH ([2]; listed as VI): 0.25%
- Hygroscopicity in words [2]: low hygroscopicity
- water uptake 1 day at 80% rH ([2]; listed as VI): 0.07%
- Stability in words (total impurities and 4-Epi-Tigecycline content) ([3]; listed as VI): adequate stability data
- 4-Epi-Tigecycline 7 days at 80° C. ([3]; listed as VI): 0.38
- Total impurities 7 days at 80° C. ([3]; listed as VI): 0.91
- 4-Epi-Tigecycline ambient conditions ([3]; listed as VI): 0.17%
- Total impurities ambient conditions ([3]; listed as VI): 0.24%

Structure (SMILES): CN(C)c1cc(NC(=O)CNC(C)(C)C)c(O)c2c1C[C@H]1C[C@H]3[C@H](N(C)C)C(O)=C(C(N)=O)C(=O)[C@@]3(O)C(O)=C1C2=O [Form IV, Tigecycline]
- Solubility, Concentration [1]: 183 mg/mL (≈ 312 mM)
- water content ambient conditions ([2]; listed as IV): 2.90%
- water content 1 day at 80% rH ([2]; listed as IV): 3.33%
- water uptake 1 day at 80% rH ([2]; listed as IV): 0.43%
- 4-Epi-Tigecycline 7 days at 80° C. ([3]; listed as IV): 0.38
- Total impurities 7 days at 80° C. ([3]; listed as IV): 0.87
- 4-Epi-Tigecycline ambient conditions ([3]; listed as IV): 0.23%
- Total impurities ambient conditions ([3]; listed as IV): 0.4%

Structure (SMILES): CN(C)c1cc(NC(=O)CNC(C)(C)C)c(O)c2c1C[C@H]1C[C@H]3[C@H](N(C)C)C(O)=C(C(N)=O)C(=O)[C@@]3(O)C(O)=C1C2=O [Form V, Tigecycline]
- Solubility, Concentration [1]: 134 mg/mL (≈ 229 mM)
- water content ambient conditions ([2]; listed as V): 0.19%
- water content 1 day at 80% rH ([2]; listed as V): 1.88%
- water uptake 1 day at 80% rH ([2]; listed as V): 1.69%
- 4-Epi-Tigecycline 7 days at 80° C. ([3]; listed as V): 0.18
- Total impurities 7 days at 80° C. ([3]; listed as V): 0.37
- 4-Epi-Tigecycline ambient conditions ([3]; listed as V): < 0.05%
- Total impurities ambient conditions ([3]; listed as V): 0.22%

Structure (SMILES): CN(C)c1cc(NC(=O)CNC(C)(C)C)c(O)c2c1C[C@H]1C[C@H]3[C@H](N(C)C)C(O)=C(C(N)=O)C(=O)[C@@]3(O)C(O)=C1C2=O [Form III, Tigecycline]
- Solubility, Concentration [1]: 174 mg/mL (≈ 297 mM)
- water content ambient conditions ([2]; listed as III): 0.69%
- water content 1 day at 80% rH ([2]; listed as III): 8.01%
- water uptake 1 day at 80% rH [2]: 7.32%
- water uptake 1 day at 80% rH ([2]; listed as III): 7.32%
- 4-Epi-Tigecycline 7 days at 80° C. ([3]; listed as III): 2.18
- Total impurities 7 days at 80° C. ([3]; listed as III): 4.46
- 4-Epi-Tigecycline ambient conditions ([3]; listed as III): 0.16%
- Total impurities ambient conditions ([3]; listed as III): 0.16%

Structure (SMILES): CN(C)c1cc(NC(=O)CNC(C)(C)C)c(O)c2c1C[C@H]1C[C@H]3[C@H](N(C)C)C(O)=C(C(N)=O)C(=O)[C@@]3(O)C(O)=C1C2=O [Tigecycline, (4S,4aS,5aR,12aS)-4,7-Bis(dimethylamino)-9-[[2-[(1,1-dimethylethyl)amino]acetyl]amino]-1,4,4a,5,5a,6,11,12a-octahydro-3,10,12,12a-tetrahydroxy-1,11-dioxo-2-naphthacene carboxamide]
- oral bioavailability [4]: very limited

Structure (SMILES): CN(C)c1cc(NC(=O)CNC(C)(C)C)c(O)c2c1C[C@H]1C[C@H]3[C@H](N(C)C)C(O)=C(C(N)=O)C(=O)[C@@]3(O)C(O)=C1C2=O [Form VIII, Tigecycline]
- Solubility, Concentration [1]: 141 mg/mL (≈ 241 mM)
- water content ambient conditions ([2]; listed as VIII): 0.10%
- water content 1 day at 80% rH ([2]; listed as VIII): 0.21%
- water uptake 1 day at 80% rH ([2]; listed as VIII): 0.11%
- Hygroscopicity in words ([2]; listed as form VIII): no water uptake at all
- water uptake 1 day at 80% rH ([2]; listed as form VIII): 0.11%
- Stability in words (total impurities and 4-Epi-Tigecycline content) ([3]; listed as VIII): adequate stability data
- Stability in words (total impurities and 4-Epi-Tigecycline content) ([3]; listed as form VIII): adequate stability data
- 4-Epi-Tigecycline 7 days at 80° C. ([3]; listed as VIII): 0.70
- Total impurities 7 days at 80° C. ([3]; listed as VIII): 2.13
- 4-Epi-Tigecycline ambient conditions ([3]; listed as VIII): 0.15%
- Total impurities ambient conditions ([3]; listed as VIII): 0.43%
